# Source: ChEMBL document CHEMBL1141380 (J Med Chem, 2007)
# Assays:
# [1] = molecular target: Vascular endothelial growth factor receptor 2 (Homo sapiens, UniProt P35968)
# Description: Inhibition of KDR by HTRF assay
# [2] = molecular target: T1, Angiopoietin-1 receptor (Homo sapiens, UniProt Q02763); test: Inhibition of Tie2 by HTRF assay
# [3] = molecular target: Mast/stem cell growth factor receptor Kit (Homo sapiens, UniProt P10721); test: Inhibition of cKit
# [4] = molecular target: Ephrin type-B receptor 4 (Homo sapiens, UniProt P54760); test: Inhibition of EPHB4
# [5] = molecular target: Mitogen-activated protein kinase 14 (Homo sapiens, UniProt Q16539); test: Inhibition of p38alpha
# [6] = molecular target: Tyrosine-protein kinase Lyn (Homo sapiens, UniProt P07948); test: Inhibition of Lyn
# [7] = molecular target: Proto-oncogene tyrosine-protein kinase Src (Homo sapiens, UniProt P12931); test: inhibition of Src
# [8] = Solubility in 0.01N HCl; format: physicochemical
# [9] = Clearance in iv dosed rat; format: ADME, organism-based; details: in vivo
# [10] = molecular target: T1, Angiopoietin-1 receptor; test: Inhibition of angiopoietin-1-stimulated Tie2 phosphorylation in EA.hy926 cells; format: functional, cell-based
# [11] = Oral bioavailability in Sprague-Dawley rat at 10 mg/kg, po; format: ADME, organism-based; details: in vivo
# [12] = molecular target: Vascular endothelial growth factor receptor 2 and tyrosine-protein kinase TIE-2 (KDR and TIE2) (Homo sapiens) (UniProt P35968+Q02763); test: Selectivity for Tie2 over KDR; format: protein assay
# [13] = Plasma protein binding in mouse; format: ADME, cell-free; details: read-out: PPB (converted)
# [14] = molecular target: Tyrosine-protein kinase Lck (Homo sapiens, UniProt P06239); test: Inhibition of Lck
# [15] = molecular target: Platelet-derived growth factor receptor beta (Homo sapiens, UniProt P09619); test: Inhibition of PDGFR
# [16] = Solubility in phosphate buffer at pH 7.0; format: physicochemical
# [17] = molecular target: Cyclin-dependent kinase 5 (Homo sapiens, UniProt Q00535); test: Inhibition of CDK5
# [18] = Volume of distribution in Sprague-Dawley rat at 1 mg/kg, iv; format: ADME, organism-based; design: dose 1 mg/kg, route intravenous; details: in vivo, read-out: Vss
# [19] = AUC (0-infinity) in Sprague-Dawley rat at 10 mg/kg, po; format: ADME, organism-based; design: time infinity, dose 10 mg/kg, route oral; details: plasma
# [20] = molecular target: Tyrosine-protein kinase SYK (Homo sapiens, UniProt P43405); test: Inhibition of SYK
# [21] = molecular target: Tyrosine-protein kinase ABL1 (Homo sapiens, UniProt P00519); test: Inhibition of Abl
# [22] = molecular target: Angiopoietin-1 receptor (Mus musculus) (UniProt Q02858); test: Inhibition of angiopoietin-1-induced Tie2 phosphorylation in CD1 NU/NU mouse at 100 mg/kg after 8 hrs; format: functional, organism-based; design: dose 100 mg/kg
# [23] = Dissociation constant, pKa of the compound; format: physicochemical
# [24] = Plasma concentration in CD1 NU/NU mouse at 100 mg/kg after 12 hrs; format: ADME, organism-based; design: dose 100 mg/kg
# [25] = molecular target: Mitogen-activated protein kinase 10 (Homo sapiens, UniProt P53779); test: inhibition of JNK3
# [26] = molecular target: Tyrosine-protein kinase ITK/TSK (Homo sapiens, UniProt Q08881); test: Inhibition of Itk
# [27] = Plasma protein binding in rat; format: ADME, cell-free; details: read-out: PPB (converted)
# [28] = Solubility in simulated intestinal fluid at pH 6.8; format: physicochemical
# [29] = molecular target: High affinity nerve growth factor receptor (Homo sapiens, UniProt P04629); test: Inhibition of TrkA
# [30] = Cmax in Sprague-Dawley rat at 10 mg/kg, po; format: ADME, organism-based; design: dose 10 mg/kg, route oral; details: in vivo
# [31] = Tmax in Sprague-Dawley rat at 10 mg/kg, po; format: ADME, organism-based; design: dose 10 mg/kg, route oral; details: in vivo
# [32] = molecular target: Proto-oncogene tyrosine-protein kinase receptor Ret (Homo sapiens, UniProt P07949); test: Inhibition of RET
# [33] = molecular target: Tyrosine-protein kinase JAK3 (Homo sapiens, UniProt P52333); test: Inhibition of Jak3
# [34] = molecular target: Tyrosine-protein kinase CSK (Homo sapiens, UniProt P41240); test: Inhibition of CSK
# [35] = molecular target: Tyrosine-protein kinase Fgr (Homo sapiens, UniProt P09769); test: Inhibition of Fgr
# [36] = molecular target: RAC-alpha serine/threonine-protein kinase (Homo sapiens, UniProt P31749); test: Inhibition of PKBalpha
# [37] = Plasma concentration in CD1 NU/NU mouse at 100 mg/kg after 8 hrs; format: ADME, organism-based; design: dose 100 mg/kg
# [38] = molecular target: Aurora kinase A (Homo sapiens, UniProt O14965); test: Inhibition of AurA
# [39] = molecular target: Angiopoietin-1 receptor (Mus musculus) (UniProt Q02858); test: Inhibition of angiopoietin-1-induced Tie2 phosphorylation in CD1 NU/NU mouse at 100 mg/kg after 3 hrs; format: functional, organism-based; design: dose 100 mg/kg
# [40] = Plasma concentration in CD1 NU/NU mouse at 100 mg/kg after 3 hrs; format: ADME, organism-based; design: dose 100 mg/kg
# [41] = molecular target: Tyrosine-protein kinase ZAP-70 (Homo sapiens, UniProt P43403); test: Inhibition of ZAP70
# [42] = Half life in Sprague-Dawley rat at 1 mg/kg, iv; format: ADME, organism-based; design: dose 1 mg/kg, route intravenous; details: in vivo
# [43] = Clearance in Sprague-Dawley rat at 1 mg/kg, iv; format: ADME, organism-based; design: dose 1 mg/kg, route intravenous; details: in vivo
# [44] = molecular target: Macrophage colony-stimulating factor 1 receptor (Homo sapiens, UniProt P07333); test: Inhibition of c-fms
# [45] = molecular target: Insulin-like growth factor 1 receptor (Homo sapiens, UniProt P08069); test: Inhibition of IGFR1
# [46] = Mean residence time in rat; format: ADME, organism-based; details: in vivo
# Chain of Vascular endothelial growth factor receptor 2 (P35968 whole entry): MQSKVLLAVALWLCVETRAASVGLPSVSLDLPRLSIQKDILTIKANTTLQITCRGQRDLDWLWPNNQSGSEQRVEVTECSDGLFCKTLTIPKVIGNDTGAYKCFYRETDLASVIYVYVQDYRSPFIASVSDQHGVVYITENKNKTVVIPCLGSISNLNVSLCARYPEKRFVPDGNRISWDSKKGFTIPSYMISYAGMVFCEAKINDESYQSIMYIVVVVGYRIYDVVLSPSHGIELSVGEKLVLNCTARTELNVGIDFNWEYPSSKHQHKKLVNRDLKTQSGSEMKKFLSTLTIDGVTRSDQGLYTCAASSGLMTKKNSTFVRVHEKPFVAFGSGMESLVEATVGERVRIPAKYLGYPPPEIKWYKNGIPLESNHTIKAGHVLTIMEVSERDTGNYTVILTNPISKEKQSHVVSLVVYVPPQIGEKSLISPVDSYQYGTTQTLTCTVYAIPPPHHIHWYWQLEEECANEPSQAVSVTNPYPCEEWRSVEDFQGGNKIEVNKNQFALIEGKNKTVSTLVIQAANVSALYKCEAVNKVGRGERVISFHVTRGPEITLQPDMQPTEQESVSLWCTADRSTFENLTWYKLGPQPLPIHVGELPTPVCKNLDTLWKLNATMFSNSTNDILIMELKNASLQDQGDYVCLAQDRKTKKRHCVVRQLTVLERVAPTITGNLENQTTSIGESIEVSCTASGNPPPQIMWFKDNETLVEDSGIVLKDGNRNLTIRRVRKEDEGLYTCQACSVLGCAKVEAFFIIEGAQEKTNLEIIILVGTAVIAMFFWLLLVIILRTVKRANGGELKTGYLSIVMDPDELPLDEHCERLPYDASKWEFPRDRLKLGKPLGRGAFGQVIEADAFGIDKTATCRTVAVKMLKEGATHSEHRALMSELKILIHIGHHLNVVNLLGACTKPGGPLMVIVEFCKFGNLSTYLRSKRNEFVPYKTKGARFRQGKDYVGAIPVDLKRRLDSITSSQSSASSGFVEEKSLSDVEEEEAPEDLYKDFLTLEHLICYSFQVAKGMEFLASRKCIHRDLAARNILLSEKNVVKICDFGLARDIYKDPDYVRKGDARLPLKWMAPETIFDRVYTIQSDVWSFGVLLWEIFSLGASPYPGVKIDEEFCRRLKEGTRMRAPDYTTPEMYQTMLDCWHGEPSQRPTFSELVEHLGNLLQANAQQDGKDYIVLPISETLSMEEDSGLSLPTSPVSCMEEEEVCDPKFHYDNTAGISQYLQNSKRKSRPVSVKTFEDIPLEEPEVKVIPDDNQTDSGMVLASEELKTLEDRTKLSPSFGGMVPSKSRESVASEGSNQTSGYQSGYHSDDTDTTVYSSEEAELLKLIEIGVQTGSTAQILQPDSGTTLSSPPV
# T1 sequence (Q02763 whole entry): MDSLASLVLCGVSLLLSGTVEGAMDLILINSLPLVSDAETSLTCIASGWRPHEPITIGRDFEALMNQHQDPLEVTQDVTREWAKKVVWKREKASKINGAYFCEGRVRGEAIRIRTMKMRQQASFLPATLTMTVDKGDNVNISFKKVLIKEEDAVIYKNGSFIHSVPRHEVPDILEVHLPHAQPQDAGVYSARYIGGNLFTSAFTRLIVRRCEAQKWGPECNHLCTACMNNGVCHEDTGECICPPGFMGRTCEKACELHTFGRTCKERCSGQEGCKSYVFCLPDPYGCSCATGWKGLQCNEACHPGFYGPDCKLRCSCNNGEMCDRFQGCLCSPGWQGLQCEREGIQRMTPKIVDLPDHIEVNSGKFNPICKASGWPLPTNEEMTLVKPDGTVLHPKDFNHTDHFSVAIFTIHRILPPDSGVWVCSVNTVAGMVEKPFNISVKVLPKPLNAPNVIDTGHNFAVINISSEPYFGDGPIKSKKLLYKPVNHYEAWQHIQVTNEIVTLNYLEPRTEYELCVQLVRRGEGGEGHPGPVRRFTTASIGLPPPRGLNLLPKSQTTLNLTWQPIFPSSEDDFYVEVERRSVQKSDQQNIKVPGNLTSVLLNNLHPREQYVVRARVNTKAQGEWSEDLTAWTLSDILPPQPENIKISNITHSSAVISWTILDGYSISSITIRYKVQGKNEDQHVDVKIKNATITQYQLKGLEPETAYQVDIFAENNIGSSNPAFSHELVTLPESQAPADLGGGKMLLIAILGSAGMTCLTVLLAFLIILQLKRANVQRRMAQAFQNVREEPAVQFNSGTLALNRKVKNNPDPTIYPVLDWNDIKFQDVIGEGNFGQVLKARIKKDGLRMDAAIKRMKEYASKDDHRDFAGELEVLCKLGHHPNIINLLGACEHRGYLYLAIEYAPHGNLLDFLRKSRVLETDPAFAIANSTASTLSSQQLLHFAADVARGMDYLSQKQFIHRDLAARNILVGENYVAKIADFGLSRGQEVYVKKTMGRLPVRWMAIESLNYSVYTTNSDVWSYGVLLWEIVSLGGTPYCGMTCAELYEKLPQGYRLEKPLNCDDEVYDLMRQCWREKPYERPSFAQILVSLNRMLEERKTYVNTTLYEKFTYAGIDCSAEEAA
# Chain of Angiopoietin-1 receptor (Mus musculus) (Q02858 whole entry): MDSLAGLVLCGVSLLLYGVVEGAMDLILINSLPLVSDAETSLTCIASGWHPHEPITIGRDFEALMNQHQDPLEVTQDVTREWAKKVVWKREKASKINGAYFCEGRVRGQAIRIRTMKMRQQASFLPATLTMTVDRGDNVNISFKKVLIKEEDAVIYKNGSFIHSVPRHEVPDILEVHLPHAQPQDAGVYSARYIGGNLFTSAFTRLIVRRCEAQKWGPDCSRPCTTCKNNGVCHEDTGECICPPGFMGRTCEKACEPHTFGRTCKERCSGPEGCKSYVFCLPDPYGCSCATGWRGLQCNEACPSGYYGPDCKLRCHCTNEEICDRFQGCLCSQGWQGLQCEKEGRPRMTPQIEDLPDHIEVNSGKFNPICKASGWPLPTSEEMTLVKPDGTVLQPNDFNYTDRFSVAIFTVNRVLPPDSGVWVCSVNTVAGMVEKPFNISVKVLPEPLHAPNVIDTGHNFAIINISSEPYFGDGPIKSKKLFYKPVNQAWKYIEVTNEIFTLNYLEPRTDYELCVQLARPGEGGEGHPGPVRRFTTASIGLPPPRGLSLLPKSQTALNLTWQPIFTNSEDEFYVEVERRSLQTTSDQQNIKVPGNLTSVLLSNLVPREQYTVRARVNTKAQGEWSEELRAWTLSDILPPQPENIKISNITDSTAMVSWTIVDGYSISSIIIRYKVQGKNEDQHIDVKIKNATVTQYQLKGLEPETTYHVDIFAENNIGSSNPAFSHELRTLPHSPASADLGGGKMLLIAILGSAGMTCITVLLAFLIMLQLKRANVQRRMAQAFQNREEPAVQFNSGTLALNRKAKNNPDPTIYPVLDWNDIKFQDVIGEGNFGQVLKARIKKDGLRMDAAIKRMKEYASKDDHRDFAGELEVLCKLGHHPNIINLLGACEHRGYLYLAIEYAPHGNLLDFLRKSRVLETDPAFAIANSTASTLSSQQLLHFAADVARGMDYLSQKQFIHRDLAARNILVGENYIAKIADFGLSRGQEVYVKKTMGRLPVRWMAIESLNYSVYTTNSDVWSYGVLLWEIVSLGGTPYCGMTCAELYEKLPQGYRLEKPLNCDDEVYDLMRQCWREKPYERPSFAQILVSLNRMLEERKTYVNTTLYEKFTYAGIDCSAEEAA
# Chain of Ephrin type-B receptor 4 (P54760 whole entry): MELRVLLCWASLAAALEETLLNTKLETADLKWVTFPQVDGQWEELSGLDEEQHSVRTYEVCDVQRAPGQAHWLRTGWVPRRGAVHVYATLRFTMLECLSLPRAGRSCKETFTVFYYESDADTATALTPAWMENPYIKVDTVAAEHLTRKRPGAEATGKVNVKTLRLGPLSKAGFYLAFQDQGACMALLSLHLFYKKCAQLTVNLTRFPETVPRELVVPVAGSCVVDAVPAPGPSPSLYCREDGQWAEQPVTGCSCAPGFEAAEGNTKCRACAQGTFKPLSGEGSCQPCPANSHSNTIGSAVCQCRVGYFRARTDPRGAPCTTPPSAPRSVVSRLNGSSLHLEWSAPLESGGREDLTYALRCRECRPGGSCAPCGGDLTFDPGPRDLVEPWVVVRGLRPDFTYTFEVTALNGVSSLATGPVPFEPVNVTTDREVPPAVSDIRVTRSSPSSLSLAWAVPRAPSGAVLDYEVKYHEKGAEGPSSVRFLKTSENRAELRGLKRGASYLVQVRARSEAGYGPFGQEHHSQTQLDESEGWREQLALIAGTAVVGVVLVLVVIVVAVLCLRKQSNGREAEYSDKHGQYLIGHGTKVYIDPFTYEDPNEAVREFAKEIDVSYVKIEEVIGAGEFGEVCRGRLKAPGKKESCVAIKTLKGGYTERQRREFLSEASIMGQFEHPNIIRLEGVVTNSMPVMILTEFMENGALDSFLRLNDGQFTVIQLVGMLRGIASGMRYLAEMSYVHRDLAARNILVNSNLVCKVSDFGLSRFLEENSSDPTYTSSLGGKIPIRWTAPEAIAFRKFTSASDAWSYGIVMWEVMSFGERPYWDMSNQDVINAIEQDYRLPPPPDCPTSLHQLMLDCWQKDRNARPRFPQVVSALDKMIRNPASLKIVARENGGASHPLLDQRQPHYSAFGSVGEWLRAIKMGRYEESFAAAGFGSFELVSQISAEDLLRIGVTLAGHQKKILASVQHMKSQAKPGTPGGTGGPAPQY
# Chain of Vascular endothelial growth factor receptor 2 and tyrosine-protein kinase TIE-2 (KDR and TIE2) (Homo sapiens) (P35968 whole entry, looked up): as the sequence (P35968 whole entry) above
# Chain of Vascular endothelial growth factor receptor 2 and tyrosine-protein kinase TIE-2 (KDR and TIE2) (Homo sapiens) (Q02763 whole entry, looked up): as the sequence (Q02763 whole entry) above
# Chain of Mitogen-activated protein kinase 14 (Q16539 whole entry): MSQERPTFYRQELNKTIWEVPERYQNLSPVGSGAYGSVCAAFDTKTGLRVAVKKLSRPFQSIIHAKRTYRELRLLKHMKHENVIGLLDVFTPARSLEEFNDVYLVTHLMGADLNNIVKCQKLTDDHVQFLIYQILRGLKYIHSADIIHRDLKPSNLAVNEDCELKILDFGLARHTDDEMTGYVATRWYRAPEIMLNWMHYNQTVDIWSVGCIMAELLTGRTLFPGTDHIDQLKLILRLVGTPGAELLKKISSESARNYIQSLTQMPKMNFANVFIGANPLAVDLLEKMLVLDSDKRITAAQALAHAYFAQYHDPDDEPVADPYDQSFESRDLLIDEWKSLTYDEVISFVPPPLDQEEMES
structure (smiles),measurement,setting,value
Cc1ccc(C(=O)Nc2cc(C(F)(F)F)ccc2N2CCOCC2)cc1Oc1ncccc1-c1ccncn1,IC50,[1],> 25000 nM
COc1ccc(C2CCCCC2)cc1NC(=O)c1ccc(C)c(Oc2ncccc2-c2ncnc3cc(OC)c(OC)cc23)c1,IC50,[2],> 25000 nM
same,IC50,[1],> 25000 nM
Cc1ccc(C(=O)Nc2cccc(C(F)(F)F)c2)cc1Nc1ncccc1-c1ccncn1,IC50,[3],< 25 nM
same,IC50,[4],< 25 nM
same,IC50,[5],< 25 nM
same,IC50,[6],< 25 nM
same,IC50,[7],< 25 nM
same,IC50,[1],4 nM
Cc1ccc(C(=O)Nc2ccc(C(F)(F)F)cc2)cc1Nc1ncccc1-c1ccncn1,IC50,[2],504 nM
same,solubility,[8],1 µg/mL
same,IC50,[1],177 nM
CNc1nccc(-c2cccnc2Oc2cc(C(=O)Nc3cc(C4CCCCC4)ccc3OC)ccc2C)n1,clearance,[9],58.2 mL/min/kg
same,IC50,[1],70 nM
COc1ccc(C(F)(F)F)cc1NC(=O)c1ccc(C)c(Oc2ncccc2-c2ccncn2)c1,IC50,[1],100 nM
CNc1cc(-c2cccnc2Oc2cc(C(=O)Nc3cc(C4CCCCC4)ccc3OC)ccc2C)ccn1,clearance,[9],98.3 mL/min/kg
same,IC50,[1],> 25000 nM
CNc1ncnc(-c2cccnc2Oc2ccc(F)c(C(=O)Nc3cc(C4CC4)ccc3N(C)CCCN(C)C)c2)n1,IC50,[10],39 nM
same,clearance,[9],45.5 mL/min/kg
same,IC50,[2],13 nM
same,IC50,[1],> 25000 nM
CNc1ncnc(-c2cccnc2Oc2ccc(F)c(C(=O)Nc3cc(C(F)(F)F)ccc3N3CCCCC3)c2)n1,IC50,[1],> 25000 nM
CNc1nccc(-c2cccnc2Oc2ccc(F)c(C(=O)Nc3cc(C(F)(F)F)ccc3N3CCCCC3)c2)n1,IC50,[10],244 nM
same,bioavailability,[11],0.3%
same,clearance,[9],5.67 mL/min/kg
same,Selectivity ratio,[12],> 500
same,IC50,[2],40 nM
same,IC50,[1],> 25000 nM
COc1ccc(C(F)(F)F)cc1NC(=O)c1ccc(C)c(Nc2ncccc2-c2ccncn2)c1,IC50,[1],58 nM
CNc1ncnc(-c2cccnc2Oc2ccc(F)c(C(=O)Nc3cc(C(C)C)ccc3N(C)CCCN(C)C)c2)n1,clearance,[9],70 mL/min/kg
same,IC50,[1],> 8000 nM
Cc1ccc(C(=O)Nc2cccc(C(F)(F)F)c2)cc1Oc1ncccc1-c1ccncn1,IC50,[1],59 nM
CNc1nccc(-c2cc(C)cnc2Oc2cccc(C(=O)Nc3cc(C(F)(F)F)ccc3N3CCCCC3)c2C)n1,IC50,[2],388 nM
same,IC50,[1],2600 nM
CNc1nccc(-c2cccnc2Oc2cc(C(=O)Nc3cc(C(F)(F)F)ccc3N3CCCCC3)ccc2F)n1,clearance,[9],25.6 mL/min/kg
same,IC50,[1],2000 nM
Cc1ccc(C(=O)Nc2ccccc2)cc1Nc1ncccc1-c1ccncn1,IC50,[1],435 nM
CNc1nccc(-c2cccnc2Oc2cccc(C(=O)Nc3cc(C(F)(F)F)ccc3N3CCCCC3)c2)n1,IC50,[10],368 nM
same,clearance,[9],54 mL/min/kg
same,IC50,[2],99 nM
same,IC50,[1],> 8000 nM
COc1cc(Nc2ncnc(-c3cccnc3Nc3cccc(C(=O)Nc4ccc(Oc5ccccc5)cc4)c3)n2)cc(OC)c1OC,IC50,[2],85 nM
same,IC50,[1],38 nM
CNc1nccc(-c2cccnc2Oc2ccc(F)c(C(=O)Nc3cc(C(F)(F)F)ccc3N(C)CCCN(C)C)c2)n1,bioavailability,[11],32%
same,clearance,[9],12 mL/min/kg
same,IC50,[1],46 nM
CNc1ncnc(-c2cccnc2Oc2ccc(F)c(C(=O)Nc3cc(C(F)(F)F)ccc3N(C)CCCN(C)C)c2)n1,IC50,[10],62 nM
same,bioavailability,[11],31%
same,fraction unbound,[13],0.02
same,IC50,[14],1100 nM
same,IC50,[15],1940 nM
same,solubility,[16],44 µg/mL
same,IC50,[17],100000 nM
same,Vd,[18],2.56 L/kg
same,AUC(0-inf),[19],2640 ng·h/mL
same,IC50,[20],25000 nM
same,IC50,[21],1280 nM
same,clearance,[9],21.7 mL/min/kg
same,inhibition,[22],25%
same,pKa,[23],9.5
same,IC50,[4],8300 nM
same,IC50,[5],3700 nM
same,IC50,[2],30 nM
same,concentration at 12 h,[24],1.59 µM
same,IC50,[25],40000 nM
same,IC50,[6],4900 nM
same,IC50,[7],5750 nM
same,IC50,[26],25000 nM
same,solubility,[8],1320 µg/mL
same,fraction unbound,[27],0.07
same,solubility,[28],340 µg/mL
same,IC50,[29],8300 nM
same,IC50,[1],7800 nM
same,Cmax,[30],520 ng/mL
same,Tmax,[31],2 h
same,IC50,[32],8300 nM
same,IC50,[33],25000 nM
same,IC50,[34],25000 nM
same,IC50,[35],8300 nM
same,IC50,[36],100000 nM
same,concentration at 8 h,[37],3.03 µM
same,IC50,[38],25000 nM
same,inhibition,[39],94%
same,concentration at 3 h,[40],3.97 µM
same,IC50,[41],25000 nM
same,half-life,[42],1.6 h
same,clearance,[43],21.7 mL/min/kg
same,IC50,[44],25000 nM
same,IC50,[45],927 nM
CNc1ncnc(-c2cccnc2Oc2cc(C(=O)Nc3cc(C4CCCCC4)ccc3OC)ccc2C)n1,IC50,[10],61 nM
same,clearance,[9],12.8 mL/min/kg
same,IC50,[2],22 nM
same,MRT,[46],0.47 h
same,IC50,[1],> 25000 nM
CNc1ncnc(-c2cccnc2Oc2cc(C(=O)Nc3cc(C(F)(F)F)ccc3N(C)CCCN(C)C)ccc2C)n1,IC50,[10],140 nM
same,clearance,[9],15.3 mL/min/kg
same,IC50,[2],59 nM
same,IC50,[1],4000 nM
COc1ccc(C2CCCCC2)cc1NC(=O)c1ccc(C)c(Oc2ncccc2-c2ccnc3ccccc23)c1,IC50,[2],> 25000 nM
same,IC50,[1],> 25000 nM
O=C(Nc1ccc(Oc2ccccc2)cc1)c1cccnc1NCc1ccncc1,IC50,[2],≥ 25000 nM
Cc1ccc(C(=O)Nc2ccc(C(F)(F)F)cc2)cc1Oc1ncccc1-c1ccncn1,solubility,[8],5 µg/mL
same,IC50,[1],705 nM
CNc1nccc(-c2cccnc2Oc2cc(C(=O)Nc3cc(C(F)(F)F)ccc3N3CCCCC3)ccc2Cl)n1,clearance,[9],21.6 mL/min/kg
same,IC50,[1],675 nM
Cc1ccc(C(=O)Nc2cc(C(F)(F)F)ccc2N2CCCCC2)cc1Nc1ncccc1-c1ccncn1,Selectivity ratio,[12],> 100
same,IC50,[2],181 nM
same,IC50,[1],> 25000 nM
CNc1ncnc(-c2cccnc2Oc2cc(C(=O)Nc3cccc(C(F)(F)F)c3)ccc2C)n1,IC50,[10],38 nM
same,IC50,[2],10 nM
same,IC50,[1],97 nM
CNc1nccc(-c2cccnc2Oc2cc(C(=O)Nc3cc(C(F)(F)F)ccc3N3CCCCC3)ccc2C)n1,IC50,[1],461 nM
Cc1ccc(C(=O)Nc2cc(C(F)(F)F)ccc2N2CCCCC2)cc1Oc1ncccc1-c1ccncn1,IC50,[1],1300 nM
CNc1nccc(-c2cccnc2Oc2cc(C(=O)Nc3cc(C(F)(F)F)ccc3N3CCOCC3)ccc2C)n1,IC50,[1],310 nM
